Data on 16 molecules can be found in paper PMC10054428, “Turning a Tumor Microenvironment Pitfall into Opportunity: Discovery of Benzamidoxime as PD-L1 Ligand with pH-Dependent Potency” (International Journal of Molecular Sciences, 2023).

Data set [1] concerns the target T1, NT650/PD-L1 (recombinant human PD-L1) (Homo sapiens, UniProt Q9NZQ7).
T1 construct: purchased Abcam ab167713
The data set can be described thus: Full-point MST binding assay (Kd) at pH 7.2 and 6.2. To be noted: for BEI (pH 6.2) / BEI: BEI = pKd/MW (kDa); for BEI: pH 7.2; for delta increment of BEI: pH 6.2 versus pH 7.2. Here is the method:
These compounds were next tested in full ligand binding assays against NT650/PD-L1 at pH 7.2, using the scalar concentration of each compound to obtain binding curves and the relative dissociation constants (Kd).
(§1) Biophysical Binding Assays. A lyophilized form of the recombinant human PD-L1 protein was purchased from Abcam (ab167713, Abcam, Cambridge, UK) and reconstituted by adding sterile deionized water to reach a theoretical concentration of 400 µg/mL in PBS (PBS7.2: 50 mM KH2PO4, 0.05% Tween 20, pH 7.2). […] Then, the protein was labeled with a fluorescent dye using the Protein Labelling Kit RED-NHS (NT650, NanoTemper Technologies GmbH, Munich, Germany) and a 1:4 ratio (protein:dye). […] The unbounded fluorophore was removed by a size-exclusion chromatography column using a PBS7.2 storage buffer (pH 7.2). The removal of the unbounded fluorophore was also repeated by conditioning the size-exclusion chromatography column with a phosphate buffer at pH 6.2 (PBS6.2: 50 mM KH2PO4, 0.05% Tween 20, pH 6.2).
(§2) Ligand binding experiments were performed using MST (Monolith NT.115; NanoTemper Technologies GmbH, Munich, Germany). This method is based on the principle of thermophoresis, which is the movement of a biomolecular complex in a temperature gradient depending on the size, charge, and hydration shell that typically change upon ligand/target interaction. The selected 10 highly soluble fragments were purchased from Life Chemicals. […] A vehicle of DMSO 2% was used as negative control.
Each compound was tested starting the 1:1 dilution from a 1 mM concentration in MST buffer (PBS7.2 and PBS6.2) with 2% DMSO. An amount of 10 µL solution of 100 nM NT650/PD-L1 was added to each compound dilution and mixed to halve the final concentration of each component, including 2% DMSO, and reach a reaction volume of 20 µL. After incubating the mixtures for 30 min, samples were loaded into 16 premium-coated capillary tubes for MST analysis. MST signals were recorded for each capillary at medium laser power and 40% LED power, choosing the manual mode with 19/20s hot region.
The Binding Efficiency Index (BEI) was calculated using the following equation [Equation (1)] [43]:BEI = pKd/MW (kDa)(1)
(§3) In all binding experiments and ligand binding displacement assays, raw data were analyzed using MO.Affinity analysis software v2.3 (NanoTemper Technologies GmbH, Munich, Germany). Kd values were extrapolated by compound concentration-dependent changes of the NT650/PD-L1 F-norm signals using MO.Affinity analysis software v2.3.
(§4) MST experiments were carried out using a Monolith NT.115 instrument (NanoTemper Technologies GmbH, Munich, Germany).

Data set [2] deals with T1, NT650/PD-L1 (recombinant human PD-L1). Nature of the data set: Single-point MST binding assay. The note with it: 250 µM compound; for Single-point binding result (in words): NT650/PD-L1; for Binder (single-point binder flag): 50 nM NT650/PD-L1, pH 7.2, F-norm outside vehicle ± 3 SD. As to the method: Putative hit compounds were defined as those molecules inducing a thermophoretic movement of the ligand-bound complex with a fluorescent signal (F-norm) outside the signal value and three-fold standard deviations of the negative control (vehicle, DMSO).
as §1, §2
Single-point binding assays were carried out, recording the MST signal for each capillary at medium laser power and 40% LED power, choosing the manual mode with a 19/20 s hot region. Each experiment was repeated three times employing premium-coated capillaries.

The nature of data set [3]: pKa by potentiometric titration (SiriusT3). Format: physicochemical. The note with it: 25 °C, n.3. The source says:
The first value (pKa1) corresponds to the deprotonated state of the protonated oxime nitrogen atom, entailing the neutral form. The second value (pKa2) is associated to the deprotonation of the oxime hydroxyl group, providing the anionic form of the compound. The presence of electron-withdrawing and/or -donating groups on the benzene ring may affect these values, entailing different stabilities of the cationic, neutral, and anionic species at a given pH. Accordingly, we used a potentiometric titration method to determine the pKa values of VIS310 and its analogues (9, 16–20).
Table 3 reports the experimental pKa values of BMS-202 (5), VIS310 (9), and its analogues (16–20), as obtained using SiriusT3 instrument. […] Therefore, the very high pKa value corresponding to the deprotonation of the oxime hydroxyl group was not experimentally determined in the compounds. Conversely, one or two pKa values were obtained, depending on the presence of a phenol moiety in the benzamidoxime derivatives. […] This is more evident with the insertion of the para hydroxyl group in the compounds VIS1201 (17; pKa1 = 5.35), VIS1202 (18; pKa1 = 5.38), VIS1203 (19; pKa1 = 5.38), and VIS310 (9; pKa1 = 5.65). These latter compounds show also a second value of the acid dissociation constant (pKa2) that corresponds to the deprotonated state of the phenolic group, entailing the anionic form of the compound. […] At pH 7.2, the microspecies adopting a neutral form increases, whereas the cationic form decreases, and a minor part of the microspecies starts adopting an anionic form (Figures S2 and S3, supplementary material).
Physicochemical Property Evaluations. Acidic constants (calcpKa) of compounds were calculated using the calculator plugin Marvin (v20.11, 2021; ChemAxon, Budapest, Hungary).
Each experiment was performed by specifying the sample weight, number of expected pKa values, calculated pKa (calcpKa) values, titration mode, and number of titrations (n.3). In order to measure the pKa of a compound, a sample concentration of 1 mM was prepared and dissolved, adding methanol as the co-solvent. […] Titrations of compounds 16–20 were performed using a ratio of 45%, 40%, 35% methanol. The Yasuda–Shedlovsky method was chosen to extrapolate aqueous pKa values. The R^2 value was used to evaluate the validity of the assay with a co-solvent, and the results were considered acceptable with a R^2 value ≥ 0.9 (Table S3, supplementary material). The accuracy of the pKa assay was also evaluated using the buffer index profile of the analyte. Specifically, the buffering capacity signal of the analyte must be above the intrinsic buffering capacity of water in order to have an accurate potentiometric measurement. Results were analyzed using Sirius T3 software v1.1.3.

Details of data set [4]: method as in PMID 25621618. To be noted: UV/vis titration, cited from earlier work.
For another data set, the target named is T2, PD-1/PD-L1 complex (Homo sapiens, UniProt Q9NZQ7).
T2 construct: purchased Abcam ab167713 (PD-L1)
T2 sequence (Q9NZQ7 19-238 limits assumed, one chain of several): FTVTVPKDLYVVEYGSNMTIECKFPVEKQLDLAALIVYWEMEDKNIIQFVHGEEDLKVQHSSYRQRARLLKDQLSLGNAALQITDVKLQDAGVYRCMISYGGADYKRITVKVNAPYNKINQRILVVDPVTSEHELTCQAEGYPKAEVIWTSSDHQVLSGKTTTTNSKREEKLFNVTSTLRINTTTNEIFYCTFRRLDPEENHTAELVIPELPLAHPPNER
The data set can be described thus: Ligand binding displacement assay of PD-1/PD-L1 complex (MST). The note with it: pH 6.2, 50 and 100 μM. As to the method:
This study was carried out with MST.
Ligand binding displacement assays were carried out with MST. […] The reconstitution of the protein was done by adding sterile deionized water to achieve a final concentration of 1 mg/mL in PBS7.2. […] The protein was tested starting the 1:1 dilution from a 26 μM concentration in MST buffer (PBS6.2) with 2% DMSO. […] After incubating the mixtures for 40 min in the dark, samples were loaded into 16 premium-coated capillary tubes for MST analysis. MST signals were recorded for each capillary at medium laser power and 80% LED power, choosing the Default on Time (DoT) mode with 4/5s hot region.
as §3, §4

[5] abbreviates: pH 7.2, n.3, read-out: Kd ± c.v.
The mark [6] stands for this setting: pH 6.2, n.3, read-out: Kd ± c.v.
Where [7] appears, read: oxime nitrogen atom, methanol co-solvent, Yasuda–Shedlovsky extrapolation, read-out: pKa1.
The mark [8] stands for this setting: phenolic group (9, 17–19), secondary amine group (5), read-out: pKa2.

The structures appear in SMILES notation. “Also recorded” adds a separate entry of the source. Read-outs that look alike come from different tables or passages of the source.

T1 sequence (Q9NZQ7 19-290): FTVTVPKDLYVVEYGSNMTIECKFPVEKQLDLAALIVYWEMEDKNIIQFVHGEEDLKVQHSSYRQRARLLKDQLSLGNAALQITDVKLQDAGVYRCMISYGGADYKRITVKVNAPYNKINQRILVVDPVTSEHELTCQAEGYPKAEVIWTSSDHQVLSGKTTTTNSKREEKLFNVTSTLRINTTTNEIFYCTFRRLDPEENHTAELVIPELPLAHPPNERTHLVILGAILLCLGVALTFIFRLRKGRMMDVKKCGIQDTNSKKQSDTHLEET

As a reminder, the Kd is the free concentration of one partner at which half of the binding sites on the other are occupied at equilibrium, for simple one-to-one binding. `COC(=O)c1ccc(C)c2c1-c1ccccc1OC2` [VIS879]: in data set [1] (setting [5]), the dissociation constant Kd was above 250 µM.

As for `Cc1cc(/C(N)=N/O)cc(C)c1O` [VIS310], the “Single-point binding result (in words)” value in data set [2] is reported as “hit compounds”. Further, the results for the dissociation constant (Kd) in data set [1] (setting [6]) and in data set [1] (setting [5]) were 47.8 µM and 164 µM, respectively. Further, the “BEI (pH 6.2)” value in data set [1] was determined as 24.0. Moreover, the BEI in data set [1] stood at 21.0. The pKa in data set [3] (setting [7]) is 5.65 ± 0.01; in data set [3] (setting [8]) it was 9.32 ± 0.02.

`NC(=NO)c1ccccc1` [benzamidoxime]: the pKa2 in data set [4] (oxime hydroxyl group) is recorded as 12.36. In data set [4] (protonated oxime nitrogen), the pKa1 is 4.85.

For `NCc1n[nH]c(=O)c2ccccc12` [VIS285], in data set [2], the “Binder (single-point binder flag)” value is listed as “x/o” and the “Single-point binding result (in words)” value is “at the borderline of the definition criterion”. Besides, the equilibrium dissociation constant (Kd) in data set [1] (setting [5]) is above 250 µM.

Turning to `Cc1ccc(Cn2c(S)nc3c2c(=O)n(C)c(=O)n3C)cc1` [VIS826], the Kd in data set [1] (setting [5]) was above 250 µM.

In the case of `O=C(NCc1ccc(F)cc1)c1ccc2nc[nH]c2c1` [VIS545], in data set [2], the “Binder (single-point binder flag)” value was “x/o” and the “Single-point binding result (in words)” value was “at the borderline of the definition criterion”. Moreover, the Kd in data set [1] (setting [5]) is above 250 µM.

Consider `O=C(O)c1cccc2c1-c1ccccc1OC2` [VIS877], for which the dissociation constant Kd in data set [1] (setting [5]) is above 250 µM.

As for `Cc1cc(C(=N)NO)ccc1O` [VIS1202], the Kd was 55.4 ± 9.86 µM in data set [1] (setting [6]) and above 1000 µM in data set [1] (setting [5]). Moreover, in data set [1], the “BEI (pH 6.2)” value is listed as 25.6. The pKa is 5.38 ± 0.01 in data set [3] (setting [7]) and 8.97 ± 0.03 in data set [3] (setting [8]).

For `NCCSc1c[nH]c2ccccc12` [VIS284], the “Single-point binding result (in words)” value in data set [2] is recorded as “hit compounds”. Moreover, the Kd in data set [1] (setting [5]) is above 250 µM.

For `C[C@]1(O)CC[C@@H]1N1CC2CCCCC2C1` (some centres unmarked) [VIS1079], in data set [2], the “Binder (single-point binder flag)” value is “x/o” and the “Single-point binding result (in words)” value was “at the borderline of the definition criterion”. Further, in data set [1] (Kd ± c.v., pH 7.2, n.3), the Kd was above 250 µM.

In the case of `Cc1cc(C)cc(C(=N)NO)c1` [VIS1200], the results for the dissociation constant Kd in data set [1] (setting [6]) and in data set [1] (setting [5]) were 95.6 ± 20.6 µM and above 1000 µM, respectively. The “BEI (pH 6.2)” value in data set [1] is reported as 24.5. The pKa in data set [3] (setting [7]) is 5.26 ± 0.01.

As to `Nc1[nH]ncc1-c1ccc(F)cc1F` [VIS32926], in data set [2], the “Binder (single-point binder flag)” value is reported as “x/o” and the “Single-point binding result (in words)” value is given as “at the borderline of the definition criterion”. Moreover, the dissociation constant (Kd) in data set [1] (setting [5]) is above 250 µM.

On to `[H]/N=C1\NC(=O)[C@H](CC(=O)Nc2cccc3ccccc23)S1` [VIS303], for which the “Single-point binding result (in words)” value in data set [2] is “hit compounds”. Further, the Kd in data set [1] (setting [5]) was above 250 µM.

With `N=C(NO)c1ccc(O)cc1` [VIS1201], the Kd in data set [1] (setting [6]) was 45.2 ± 10.6 µM. Besides, in data set [1], the “BEI (pH 6.2)” value was 28.6, the “delta increment of BEI” value was “+8.9” and the BEI was 19.7. For the same molecule, the Kd in data set [1] (setting [5]) is above 1000 µM. Also, on PD-1/PD-L1 complex, the “Inhibition of PD-1/PD-L1 interaction (in words)” value is recorded as “dose-dependently inhibits the PD-1/PD-L1 interaction; also recorded: dose-dependently inhibit the formation of the PD-1/PD-L1 complex”. In addition, in data set [3] (setting [7]), the pKa was 5.35 ± 0.12. For the same molecule, in data set [3] (setting [8]), the pKa amounted to 8.64 ± 0.01.

As for `N=C(NO)c1ccccc1-c1ccccc1` [VIS1204], the Kd in data set [1] (setting [6]) was determined as 70.8 ± 12.7 µM. In data set [1], the “BEI (pH 6.2)” value is reported as 19.6, the “delta increment of BEI” value is reported as “+1.5” and the BEI came to 18.1. For the same molecule, the Kd in data set [1] (setting [5]) came to 148 ± 71.3 µM. In addition, the pKa in data set [3] (setting [7]) is 5.3 ± 0.01.

For `Cc1cc(O)ccc1C(=N)NO` [VIS1203], the Kd in data set [1] (setting [6]) is 54.9 ± 8.2 µM; in data set [1] (setting [5]), above 1000 µM. Moreover, the “BEI (pH 6.2)” value in data set [1] came out at 25.7. Further, the results for the pKa in data set [3] (setting [7]) and in data set [3] (setting [8]) were 5.38 ± 0.01 and 9.17 ± 0.02, respectively.
